Measurements published in patent publication US20240239818A1, “COMPOUNDS AND COMPOSITIONS COMPRISING FLUOROPHORES FOR USE IN VISUALIZATION AND PURIFICATION OR MANIPULATION” (priority 2022, published 2024).
Like-named read-outs stand apart in the source and are kept apart here.

Experiments:
[1] = target: T1, msGFP-HaloTag® fusion localized to the mitochondrial outer membrane (Rhodococcus rhodochrous, UniProt P0A3G2, A155T/A167V/A172T/A224E/C128F/C176G/D78G/E160K/E257K/H272N/K175M/K195N/L47V/L88M/N227D/S58T/T264A/Y273L/Y87F); test: HEK293T labeling and fluorescence microscopy; type: cell-based; settings: live HEK293T cells, nanomolar concentration (100 nM, 1 h)
T1 construct: expressed in transfected cells; host or cells: HEK293T, calcium phosphate transfection
T1 sequence (P0A3G2 other isoform, or with tags, fused parts or gaps with the stated changes): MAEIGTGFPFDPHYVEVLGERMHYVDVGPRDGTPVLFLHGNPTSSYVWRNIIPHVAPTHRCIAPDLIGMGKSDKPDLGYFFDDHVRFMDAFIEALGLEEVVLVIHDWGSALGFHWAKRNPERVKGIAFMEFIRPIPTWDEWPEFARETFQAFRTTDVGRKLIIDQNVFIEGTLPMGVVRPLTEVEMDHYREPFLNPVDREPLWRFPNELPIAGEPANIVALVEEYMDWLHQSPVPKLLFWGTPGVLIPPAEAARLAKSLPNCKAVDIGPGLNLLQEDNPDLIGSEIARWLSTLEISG
Source text: Plasmid construction. HaloTag®, amplified from the pHTC HaloTag® CMV-neo Vector (Promega; G7711) and monomeric-superfolder green fluorescent protein (msGFP; lab stock), was fused to the mitochondrial targeting signal from OMP25,^28 interspacing flexible GS(GSS)4 linkers between each domain by PCR Splicing by Overlap Extension (SOE). This construct was subcloned into hSynapsin promoter bearing a copy of FUGW.^29 FUGW was a gift from David Baltimore (Addgene plasmid #14883; RRID: Addgene_14883).^48 This construct was designated as pF(UG) hSyn HaloTag®-TEV-4×GS-msGFP-mito.
HEK293T cell culture. HEK293T cells (ATCC) were passaged before 80% confluency by trypsinization (Corning; 25-053-CI) and trituration. The cell suspension was then plated on glass coverslips (Warner instruments; 64-0734, CS-18R17) coated with poly-D-lysine (Thermofisher; ICN10269491) and cultured in Dulbecco's Modified Eagle Medium (DMEM; ThermoFisher; 11965-118) supplemented with 10% v/v fetal bovine serum (FBS, Atlanta Biological) and penicillin/streptomycin (pen/strep; ThermoFisher; MT-30-001-CI) at 37° C. in a humidified 5% v/v CO2 environment following ATCC guidelines. These HEK293T cells were tested for mycoplasma contamination using the Universal Mycoplasma Detection Kit (ATCC; 30-1012K) and validated using Short Tandem Repeat profiling by ATCC (ATCC; 135-XV) within the previous year.
HEK293T labeling and fluorescence microscopy. […] For pulse-chase experiments, HEK293T cells were incubated with biotin-HaloTag® ligand (6; #G8281, Promega) at either 100 nM or 10 μM for 1 hour at 37° C. and chased with 100 nM of JANELIA FLUOR® (JF)549-HaloTag® ligand (2HTL). […] For imaging, the coverslips containing HEK293T cells were fixed with 4% paraformaldehyde in PBS at 37° C. for 10 min, washed with PBS (3×), and mounted on glass slides with ProLong Glass Antifade Mountant with NucBlue™ Stain (ThermoFisher; P36981). These cells were imaged using a Zeiss LSM 880 with Airyscan and a plan-apochromatic 63×/1.40 oil objective in Fast Airyscan mode. The same image acquisition settings were used for each trial and condition. Images were then processed with automatic Airyscan deconvolution settings.

[2] = type: physicochemical
Experimental: Determination of logD7.4. The log of distribution coefficients at pH 7.4 was determined in octanol-phosphate-buffered saline (PBS) using the miniaturized shake flask setup described previously.^36, 47 Briefly, 150 mL each of octanol and PBS pH 7.4 were stirred vigorously for 12-16 h. The layers were allowed to stand for at least 24 h for phase separation. The separated layers were collected and served as PBS saturated with octanol (PBS*) and octanol saturated with PBS (octanol*). Stock solutions (1 mM or 5 mM) of ligands were prepared in DMSO and diluted in PBS* to obtain 1 μM or 10 μM (3-5 mL) of the standard (std). This standard was used to prepare appropriate dilutions using octanol*, in triplicate, in 2-mL glass vials. The leftover standard was used to determine the standard concentration (Cstd). The vials were vortexed for 1 min and shaken horizontally at 700 rpm for 2 h. The vials were then shaken upright at 150 rpm for 2 h to allow the phases to separate. The octanol* layer was pipetted out, and the PBS* layer was used for further analyses. The concentrations of ligands in the standard and PBS* (CPBS*) were determined via fluorescence measurements of 200 μL of PBS* or std in 96-well plates on the Cytation 5 Multimode Plate Reader (BioTek). For Si-rhodamine containing ligands, 2-20 μL of trifluoroacetic acid was added to each well of the 96-well plate prior to the fluorescence measurements. Reported values are averages of at least two measurements. The logD7.4 was obtained as described previously using equation 2:
[formula] • where Cstd is the standard concentration in PBS, CPBS* is the concentration in PBS after partitioning, r is the dilution factor of the standard solution, VPBS* is the volume of PBS used in the partitioning, and Voctanol* is the volume of octanol used in the partitioning.

[3] = Determination of lactone-zwitterion equilibrium constant (KL-Z); type: physicochemical; settings: 1:1 (v/v) dioxane:water
Experimental: Determination of KL-Z. The lactone-zwitterion equilibrium constant (KL-Z) was calculated as described previously^13, 23, 32, 45 using equation 1: […]
where εdw is the extinction coefficient of the dyes in a 1:1 (v/v) dioxane:water solvent mixture containing 0.01% (v/v) triethylamine; this dioxane water mixture was chosen to give a large range of KL-Z values,^23 and the triethylamine additive ensures the rhodamines are in the net neutral form. The εmax is the maximal extinction coefficient, measured in 0.1% (v/v) trifluoroacetic acid in 2,2,2-trifluoroethanol (TFE).

[4] = 1-Photon spectroscopy and quantum yield of HaloTag® ligands; type: physicochemical; settings: free ligand, 10 mM HEPES pH 7.3
Experimental: 1-Photon spectroscopy of HaloTag® ligands and HaloTag® conjugates. […] All measurements were taken at ambient temperature (22 ±2° C.). Absorption spectra were recorded on a Cary Model 100 spectrometer (Agilent) using 1-cm path length 1.0-mL quartz microcuvettes from Starna Cells. Fluorescence spectra were recorded on a Cary Eclipse fluorometer (Varian) using 1-cm path length 3.5-mL quartz cuvettes (Starna Cells). As before,^13, 23, 32, 45 HaloTag® protein was used as a 100 μM solution in 1×TBS. HaloTag® ligands 12-15 (5 μM) were dissolved in 10 mM HEPES, pH 7.3, containing 0.1 mg/mL CHAPS. An aliquot of HaloTag® protein (1.5 equiv) was added, and the resulting mixture was incubated until a consistent absorbance signal was observed (60-120 min). To measure the fold-increase of absorbance upon HaloTag® binding, a “no HaloTag®” control experiment was performed where an equivalent volume of TBS blank was added in place of the protein. Reported values for extinction coefficient (ε) are averages of at least two measurements.
Quantum yield determination. All reported absolute fluorescence quantum yield values (Φf) were measured in the laboratory under identical conditions using a Quantaurus-QY spectrometer (model C11374, Hamamatsu). This instrument uses an integrating sphere to determine photons absorbed and emitted by a sample. Measurements were performed using dilute samples (absorbance<0.1), and self-absorption corrections were performed using the instrument software.^46 Reported values are averages of at least two measurements.

[5] = system: HaloTag®-histone H2B fusion protein; type: cell-based; settings: 200 nM, live U2OS cells expressing HaloTag®-H2B, 0-4 h
Experimental: Dye loading kinetics. Live U2OS.H2B.HaloTag® stable cells were labeled over a time course of 0-4 h with 200 nM of biotin-JF549-HaloTag® ligand (12), biotin-JF608-HaloTag® ligand (13), biotin-JF646-HaloTag® ligand (14), or biotin-JF635-HaloTag® ligand (15) at 37° C. Cells were then washed 3× with dye-free media, fixed with 4% paraformaldehyde in 0.1 M phosphate buffer, pH 7.4 for 15 min at 37° C. Confocal imaging was performed on a Leica SP8 with an HC PL APO CS2 20×/0.75 immersion objective using the tunable white light laser (WLL) to excite dyes at their λabs in constant power mode. Fluorescence was quantified as the average integrated density of background corrected nuclear signals from confocal image stack projections analyzed in FIJI; n=100 nuclear signals per compound.

[6] = 1:1 (v/v) dioxane-water; parent JF dyes; cited from earlier work

Row | SMILES | logD7.4 ([2]; pH 7.4) | KL-Z [3] | logD7.4 ([2]; octanol-PBS pH 7.4) | KL-Z [6] | other results
1 | O=C(NCCOCCOCCCCCCCl)c1ccc2c(c1)C1(OC2=O)c2ccc(N3CCC3)cc2Oc2cc(N3CCC3)ccc21 [2HTL, JF549-HaloTag® ligand, reference compound] | 0.82 | 5.2 | – | – | labeling of mitochondria-localized HaloTag®-msGFP fusion [1]: labeled the mitochondria-localized HaloTag®-msGFP fusions
2 | CC1(C)C2=CC(=[N+]3CC(C(=O)NCCOCCOCCNC(=O)CCCC[C@@H]4SC[C@@H]5NC(=O)N[C@@H]54)C3)C=CC2=C(c2cc(C(=O)NCCOCCOCCCCCCCl)ccc2C(=O)[O-])c2ccc(N3CCC3)cc21 (some centres unmarked) [compound 13, Biotin-JF608-HaloTag® ligand] | 2.63 | 0.17 | – | – | extinction coefficient (ε) [4]: 92,300 M^−1cm^−1; fluorescence quantum yield (Φf) [4]: 0.65; λabs [4]: 610 nm; λem [4]: 634 nm; time to reach saturation of labeling [5]: 4 h
3 | C[Si]1(C)c2cc(N3CC(F)C3)ccc2C2(OC(=O)c3ccccc32)c2ccc(N3CC(F)C3)cc21 [compound 5, JF635] | – | – | 4.1 | 0.0001 | –
4 | C[Si]1(C)c2cc(N3CCC3)ccc2C2(OC(=O)c3ccc(C(=O)NCCOCCOCCCCCCCl)cc32)c2ccc(N3CCC3)cc21 [4HTL, JF646-HaloTag® ligand, reference compound] | – | 0.010 | 3.59 | – | labeling of mitochondria-localized HaloTag®-msGFP fusion [1]: labeled the mitochondria in live cells
5 | O=C1OC2(c3ccc(N4CCC4)cc3Oc3cc(N4CCC4)ccc32)c2ccccc21 [compound 2, Janelia Fluor 549] | 0.98 | – | – | 3.5 | –
6 | CC1(C)c2cc(N3CCC3)ccc2C2(OC(=O)c3ccc(C(=O)NCCOCCOCCCCCCCl)cc32)c2ccc(N3CCC3)cc21 [3HTL, reference compound] | – | 0.33 | 3.55 | – | –
7 | CC1(C)c2cc(N3CCC3)ccc2C2(OC(=O)c3ccccc32)c2ccc(N3CCC3)cc21 [compound 3, JF608] | – | – | 3.78 | 0.091 | –
8 | C[Si]1(C)c2cc(N3CCC3)ccc2C2(OC(=O)c3ccccc32)c2ccc(N3CCC3)cc21 [compound 4, JF646] | – | – | 3.98 | 0.0014 | –
